Results: US20220153732A1, “PROTEIN SECRETION INHIBITORS” (KEZAR LIFE SCIENCES, priority 2019, published 2022)
Read-outs that look alike come from different tables or passages of the source.

Legend:
Type in all cases: cell-based
[1] = tested on: IL-2-FL/Gaussia Luciferase; assay: Dox Induced IL2-FL-Gluc Assay; conditions: 293FRT/TO cells, read-out: 24 hr Dox Inducible IL2FLGIuc 293FRT/TO: Mean IC50
Procedure: (§1) Transfected cells were selected for resistance to the selectable markers Hygromycin and Blasticidin to create a stable cell line that contained the IL-2-FL/Gaussia Luciferase cDNA insert whose expression was regulated under the T-RExTM system. The day before assay, cells were trypsinized and plated in 384-well tissue culture plates. The next day, compound dilutions in DMSO/media containing doxycycline were added to the wells and incubated at 37° C., 5% CO2. […] For chemical structures that include one or more stereoisomers, but are illustrated without indicating stereochemistry, the assay data refers to a mixture of stereoisomers.

[2] = tested on: PD1-ss+10aa/Gaussia Luciferase; assay: Dox-Induced PD1-ss-Gluc Assay; conditions: 293FRT/TO cells, read-out: 24 hr Dox Inducible PD1ssGluc 293FRT/TO: Mean IC50
Procedure: (§2) Transfected cells were selected for resistance to the selectable markers Hygromycin and Blasticidin to create a stable cell line that contained the PD1-ss+10aa/Gaussia Luciferase cDNA insert whose expression was regulated under the T-REx™ system. The day before assay, cells were trypsinized and plated in 384-well tissue culture plates. The next day, compound dilutions in DMSO/media containing doxycycline were added to the wells and incubated at 37° C., 5% CO2.
(§3) For chemical structures that include one or more stereoisomers, but are illustrated without indicating stereochemistry, the assay data refers to a mixture of stereoisomers.

[3] = tested on: human multiple myeloma cell line NCI-H929; assay: H929 Cell Viability Assay; conditions: read-out: 48 hr H929 Viability Celltiter-Glo: Mean EC50
Procedure: (§4) Plates were incubated at 37° C., 5% CO2 for 48 hours. After 48 hours, Celltiter-Glo® (Promega) was added to each well and luciferase signal was quantified using Tecan Infinite M1000 Pro for cell viability determination.
as §3

[4] = tested on: HER3-ss+4aa/Gaussia Luciferase; assay: Dox-Induced Her3-ss-Gluc Assay; conditions: 293FRT/TO cells, read-out: 24 hr Dox Inducible Her3(ss + 4)Gluc 293FRT/TO: Mean IC50
Procedure: as §2, with “HER3-ss+4aa/Gaussia” for “PD1-ss+10aa/Gaussia”
as §3

[5] = tested on: human multiple myeloma cell line U266B1; assay: U266 Cell Viability Assay; conditions: read-out: 48 hr U266 Viability Celltiter-Glo: Mean EC50
Procedure: as §4, with “Cells were plated in 384-well tissue culture plates and treated with compound dilutions in DMSO/media. Plates” for “Plates”
as §3

[6] = tested on: TNFα-FL/Gaussia Luciferase; assay: Dox Induced TNFα-FL-Gluc Assay; conditions: 293FRT/TO cells, read-out: 24 hr Dox Inducible TNFaFLGluc 293FRT/TO: Mean IC50
Procedure: as §1, with “TNFα-FL/Gaussia” for “IL-2-FL/Gaussia”

[7] = 24 hr doxycycline induction, Gaussia luciferase signal
[8] = 48 hr, NCI-H929 cells, Celltiter-Glo
[9] = U-266, 48 hr, U266B1 cells, Celltiter-Glo

Compound | IC50 [1, 7] [nM] | IC50 [2, 7] [nM] | EC50 [3, 8] [nM] | IC50 [4, 7] [nM] | EC50 [5, 9] [nM] | IC50 [6, 7] [nM] | IC50 ([1]; 24 hr, doxycycline-induced) [nM] | IC50 ([2]; 24 hr, doxycycline-induced) [nM] | IC50 ([4]; 24 hr, doxycycline-induced) [nM] | IC50 ([6]; 24 hr, doxycycline-induced) [nM] | EC50 ([3]; NCI-H929, 48 h) [nM] | EC50 ([5]; U-266, 48 h) [nM]
O=C(Nc1nc([C@@H]2CC[C@@H](c3ccccc3)C2)cs1)c1cccn1Cc1ccncc1 (stereo in doubt) [Compound A292, N-(4-((1R,3R)-3-phenylcyclopentyl)thiazol-2-yl)-1-(pyridin-4-ylmethyl)-1H-pyrrole-2-carboxamide] | 835 | 211 | 19000 | 471 | > 25000 | 2510 |  |  |  |  |  | 
O=C(Nc1nc([C@H]2CC[C@@H](c3ccccc3)C2)cs1)c1cccn1Cc1ccncc1 (stereo in doubt) [Compound A305, N-(4-((1S,3R)-3-phenylcyclopentyl)thiazol-2-yl)-1-(pyridin-4-ylmethyl)-1H-pyrrole-2-carboxamide] |  |  | 12400 |  | > 25000 |  | 657 | 196 | 414 | 2180 |  | 
C[C@H](OC(C)(C)c1csc(NC(=O)c2cccn2Cc2ccncc2)n1)c1ccccc1 [Compound A1, (S)-N-(4-(2-(1-phenylethoxy)propan-2-yl)thiazol-2-yl)-1-(pyridin-4-ylmethyl)-1H-pyrrole-2-carboxamide] | 93 | 24 | 1880 | 55 | > 25000 | 401 |  |  |  |  |  | 
CC(OC(C)(C)c1csc(NC(=O)c2cccn2Cc2ccncc2)n1)c1cccc(Cl)c1 (stereo not drawn) [Compound A2, N-(4-(2-(1-(3-chlorophenyl)ethoxy)propan-2-yl)thiazol-2-yl)-1-(pyridin-4-ylmethyl)-1H-pyrrole-2-carboxamide] | 105 | 29 | 1610 | 62 | 22300 | 391 |  |  |  |  |  | 
CC(OC(C)(C)c1csc(NC(=O)c2cccn2Cc2ccncc2)n1)c1ccccc1 (stereo not drawn) [Compound A3, N-(4-(2-(1-phenylethoxy)propan-2-yl)thiazol-2-yl)-1-(pyridin-4-ylmethyl)-1H-pyrrole-2-carboxamide] | 144 | 36 | 2910 | 99 | > 25000 | 580 |  |  |  |  |  | 
COc1cccc(C(C)OC(C)(C)c2csc(NC(=O)c3cccn3Cc3ccncc3)n2)c1 (stereo not drawn) [Compound A4, N-(4-(2-(1-(3-methoxyphenyl)ethoxy)propan-2-yl)thiazol-2-yl)-1-(pyridin-4-ylmethyl)-1H-pyrrole-2-carboxamide] | 148 | 38 | 2770 | 91 | > 25000 | 377 |  |  |  |  |  | 
CC(OC(C)(C)c1csc(NC(=O)c2cccn2Cc2ccncc2)n1)c1ccc(Cl)cc1 (stereo not drawn) [Compound A5, N-(4-(2-(1-(4-chlorophenyl)ethoxy)propan-2-yl)thiazol-2-yl)-1-(pyridin-4-ylmethyl)-1H-pyrrole-2-carboxamide] | 145 | 43 | 2440 | 102 | 23900 | 810 |  |  |  |  |  | 
C[C@H](OC(C)(C)c1csc(NC(=O)c2cccn2CCCc2ccncc2)n1)c1ccccc1 [Compound A6, (S)-N-(4-(2-(1-phenylethoxy)propan-2-yl)thiazol-2-yl)-1-(3-(pyridin-4-yl)propyl)-1H-pyrrole-2-carboxamide] | 78 | 46 | 2170 | 88 | 6220 | 541 |  |  |  |  |  | 
CC(C)(OCC1CCCCC1)c1csc(NC(=O)c2cccn2Cc2ccncc2)n1 [Compound A7, N-(4-(2-(cyclohexylmethoxy)propan-2-yl)thiazol-2-yl)-1-(pyridin-4-ylmethyl)-1H-pyrrole-2-carboxamide] | 71 | 58 | 3850 | 93 | > 25000 | 808 |  |  |  |  |  | 
CC(OC(C)(C)c1csc(NC(=O)c2cccn2Cc2ccncc2)n1)c1ccccc1Cl (stereo not drawn) [Compound A8, N-(4-(2-(1-(2-chlorophenyl)ethoxy)propan-2-yl)thiazol-2-yl)-1-(pyridin-4-ylmethyl)-1H-pyrrole-2-carboxamide] | 165 | 58 | 3890 | 174 | 7870 | 420 |  |  |  |  |  | 
CC(C)(OCc1ccccc1)c1csc(NC(=O)c2cccn2Cc2ccncc2)n1 [Compound A9, N-(4-(2-(benzyloxy)propan-2-yl)thiazol-2-yl)-1-(pyridin-4-ylmethyl)-1H-pyrrole-2-carboxamide] | 197 | 104 | 9460 | 202 | > 25000 | 1620 |  |  |  |  |  | 
CC(C)(OC1CCCCC1)c1csc(NC(=O)c2cccn2Cc2ccncc2)n1 [Compound A10, N-(4-(2-(cyclohexyloxy)propan-2-yl)thiazol-2-yl)-1-(pyridin-4-ylmethyl)-1H-pyrrole-2-carboxamide] | 158 | 105 | 15600 | 195 | > 25000 | 1580 |  |  |  |  |  | 
CC(C)OC(C)(C)c1csc(NC(=O)c2cccn2CCCc2ccncc2)n1 [Compound A11, N-(4-(2-isopropoxypropan-2-yl)thiazol-2-yl)-1-(3-(pyridin-4-yl)propyl)-1H-pyrrole-2-carboxamide] | 61 | 115 | 8690 | 128 | > 25000 | 2390 |  |  |  |  |  | 
O=C(Nc1nc(/C=C\c2ccccc2)cs1)c1cccn1Cc1ccncc1 [Compound A12, 1-(pyridin-4-ylmethyl)-N-(4-styrylthiazol-2-yl)-1H-pyrrole-2-carboxamide] | 566 | 139 | 18600 | 338 | > 25000 | 1760 |  |  |  |  |  | 
CC(C)OC(C)(C)c1csc(NC(=O)[C@@H]2CCCN2Cc2ccncc2)n1 [Compound A130, (S)-N-(4-(2-isopropoxypropan-2-yl)thiazol-2-yl)-1-(pyridin-4-ylmethyl)pyrrolidine-2-carboxamide] | > 25000 | > 25000 | > 25000 | > 25000 |  | > 25000 |  |  |  |  |  | 
CC(C)(C)c1csc(NC(=O)c2cc3cc(Cl)ccc3n2Cc2ccncc2)n1 [Compound B28, N-(4-(tert-butyl)thiazol-2-yl)-5-chloro-1-(pyridin-4-ylmethyl)-1H-indole-2-carboxamide] |  |  |  |  |  |  | > 25000 | > 25000 |  | > 25000 | 23400 | > 25000
CCc1nc(NC(=O)c2cc3cc(Cl)ccc3n2Cc2ccncc2)sc1C [Compound B29, 5-chloro-N-(4-ethyl-5-methylthiazol-2-yl)-1-(pyridin-4-ylmethyl)-1H-indole-2-carboxamide] |  |  |  |  |  |  | > 25000 | > 25000 |  | > 25000 | > 25000 | > 25000
